Laboratory results reported in publication PMC8637573, “EWS–FLI1‐targeting peptide identifies Ewing sarcoma tumor boundaries and lymph node metastasis via near‐infrared imaging” (Molecular Oncology, 2021).
pIC50: −log10 of the molar value. Residues, ends and D or L forms follow the SMILES beside them.

Key:
[1] = molecular target: T1, E/F in A673 cells (Homo sapiens, UniProt Q01543+Q01844); experiment: Binding affinity test (competition of E9R with CS2‐N‐E9R); details: E9R 4 × 10^−3 M to 4 × 10^−9 M incubated 1 h, washed, then 4 μM CS2‐N‐E9R 40 min, Odyssey Infrared Imager, average of quadruple wells, read-out: IC50 for the inhibition of CS2‐N‐E9R binding E/F
T1 construct: endogenous in cells; host or cells: A673 cells (fixed and permeabilised in A8, living in A10)
T1 sequence (Q01844+Q01543 with tags, fused parts or gaps): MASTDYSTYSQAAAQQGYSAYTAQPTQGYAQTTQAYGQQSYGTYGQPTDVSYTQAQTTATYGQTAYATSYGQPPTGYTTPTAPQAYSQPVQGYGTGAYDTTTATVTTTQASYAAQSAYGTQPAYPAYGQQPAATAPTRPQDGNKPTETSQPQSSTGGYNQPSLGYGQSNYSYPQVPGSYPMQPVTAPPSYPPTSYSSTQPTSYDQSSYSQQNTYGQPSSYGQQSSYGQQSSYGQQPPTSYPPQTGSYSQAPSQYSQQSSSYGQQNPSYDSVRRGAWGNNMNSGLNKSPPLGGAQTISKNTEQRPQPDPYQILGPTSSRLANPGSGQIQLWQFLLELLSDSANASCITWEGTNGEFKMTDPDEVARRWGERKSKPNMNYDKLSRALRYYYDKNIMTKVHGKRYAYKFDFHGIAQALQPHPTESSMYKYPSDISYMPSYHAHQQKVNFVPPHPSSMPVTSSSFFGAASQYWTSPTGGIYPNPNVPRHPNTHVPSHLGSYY
Experimental: As to the binding affinity test, serial concentrations of E9R (from 4 × 10^−3 M to 4 × 10^−9 M) were prepared as competitors for CS2‐N‐E9R. A673 cells were seeded into 96‐well Black Polystyrene Assay plate at a concentration of 4 × 10^3 cells per well with 150 μL medium containing 10% FBS at incubator for 24 h. Different concentrations of E9R were added into palate and incubated for 1 h, and then washed three times with PBS (pH 7.4). 4 μM of CS2‐N‐E9R was then added into each well and incubated for another 40 min. After that the samples were washed and imaged with Odyssey® Infrared Imager. Each data point represents the average value of quadruple wells. Data were analyzed using GRAPHPAD PRISM (GraphPad Software, San Diego, CA, USA). IC50 values, which were defined as the concentration of competitive agent required to inhibit 50% of CS2‐N‐E9R binding, were calculated.

[2] = system: A673 cells; experiment: Living cell fluorescence imaging; assay type: cell-based, human; details: A673 cells pre‐incubated with 50 μM E9R for 1 h, then 10 μM CS2‐N‐E9R
Experimental: E/F‐positive ES cells (A673) and E/F‐negative sarcoma cells (143B) were then seeded into confocal culture dishes at a density of 2 × 10^5 cells each dish in 1.5‐mL medium containing 10% FBS. After 24 h of cell attachment, the dishes were then washed three times with 1 mL PBS. The dishes were then cultured in medium with 10 μM probe CS2‐N‐E9R. The intracellular probe aggregations were then observed by Leica‐LCS‐SP8‐STED confocal microscope (Leica, Wetzlar, Germany).
E/F‐positive ES cells (A673 cells, RD‐ES cells) and E/F‐negative osteosarcoma cells (143B cells), hepatoma carcinoma cells (Hep3B cells), and […] embryonic human kidney cells (293T cells) were seeded into confocal culture dishes. All the dishes were incubated with 10 μM CS2‐N‐E9R for 1 h and washed three times with PBS buffer before imaging, except for the control and blocking groups. For the control group, A673 cells were incubated with 10 μM control probe CS2‐N‐E. For the blocking group, A673 cells were pre‐incubated with 50 μM peptide E9R as a blocking agent for 1 h, after that incubated with 10 μM probe CS2‐N‐E9R.

For `CC[C@H](C)[C@H](NC(=O)[C@@H](NC(=O)[C@H](C)NC(=O)[C@H](CC(=O)O)NC(=O)[C@H](CC(C)C)NC(=O)[C@@H]1CCCN1C(=O)[C@@H]1CCCN1C(=O)[C@@H]1CCCN1)C(C)C)C(=O)N[C@@H](CCC(=O)O)C(=O)N[C@@H](C)C(=O)O` [E9R] (H-PPPLDAVIEA-OH; N-terminus assumed), the pIC50 [1] was 5.43 and the “fluorescence of CS2‐N‐E9R after pretreatment with blocking agent” value [2] was “fluorescence muted”.
